Reference: ChEMBL document CHEMBL3044921, “Synthesis, characterization, and SAR studies of new (1H-indol-3-yl)alkyl-3-(1H-indol-3-yl)propanamide derivatives as possible antimicrobial and antitubercular agents” (2013)
Values after ≈ are worked out from the molar mass of the structure shown.

Assays:
Talaromyces marneffei [1] = test: Antifungal activity against Talaromyces marneffei assessed as growth inhibition at […] to […] ug/ml after 3 to 4 days by agar well diffusion method; type: functional
Aspergillus fumigatus [2] = test: Antifungal activity against Aspergillus fumigatus NCIM 902 assessed as growth inhibition at […] to […] ug/ml after 3 to 4 days by agar well diffusion method; type: functional
Aspergillus flavus [3] = test: Antifungal activity against Aspergillus flavus NCIM 524 assessed as growth inhibition at […] to […] ug/ml after 3 to 4 days by agar well diffusion method; type: functional
Candida albicans [4] = test: Antifungal activity against Candida albicans assessed as growth inhibition after 3 to 4 days by serial plate dilution method; type: functional
[5] = system: Trichophyton mentagrophytes; test: Antifungal activity against Trichophyton mentagrophytes assessed as growth inhibition after 3 to 4 days by serial plate dilution method; type: functional
Talaromyces marneffei [6] = test: Antifungal activity against Talaromyces marneffei assessed as growth inhibition after 3 to 4 days by serial plate dilution method; type: functional
Aspergillus fumigatus [7] = test: Antifungal activity against Aspergillus fumigatus NCIM 902 assessed as growth inhibition after 3 to 4 days by serial plate dilution method; type: functional
Aspergillus flavus [8] = test: Antifungal activity against Aspergillus flavus NCIM 524 assessed as growth inhibition after 3 to 4 days by serial plate dilution method; type: functional
Streptococcus pyogenes [9] = type: functional
Description: Antibacterial activity against Streptococcus pyogenes assessed as growth inhibition at 1.56 to 25 ug/ml after 3 to 4 days by agar well diffusion method

Klebsiella pneumoniae [10] = type: functional
Description: Antibacterial activity against Klebsiella pneumoniae assessed as growth inhibition at 1.56 to 25 ug/ml after 3 to 4 days by agar well diffusion method

Pseudomonas aeruginosa [11] = type: functional, ATCC 27853
Description: Antibacterial activity against Pseudomonas aeruginosa ATCC 27853 assessed as growth inhibition at 1.56 to 25 ug/ml after 3 to 4 days by agar well diffusion method

Staphylococcus aureus [12] = type: functional, ATCC 25923
Description: Antibacterial activity against Staphylococcus aureus ATCC 25923 assessed as growth inhibition at 1.56 to 25 ug/ml after 3 to 4 days by agar well diffusion method

Streptococcus pyogenes [13] = test: Antibacterial activity against Streptococcus pyogenes assessed as growth inhibition after 16 to 18 hr by serial plate dilution method; type: functional
[14] = system: Mycolicibacterium fortuitum; test: Antitubercular activity against Mycobacterium fortuitum ATCC 19542 assessed as growth inhibition at 0.3125 to 5 ug/mL after 7 days by resazurin reduction test; type: functional; conditions: ATCC 19542, 168 h
[15] = system: Mycolicibacterium smegmatis; test: Antitubercular activity against Mycobacterium smegmatis ATCC 19420 assessed as growth inhibition at 0.3125 to 5 ug/mL after 7 days by resazurin reduction test; type: functional; conditions: ATCC 19420, 168 h
[16] = system: Mycobacterium tuberculosis; test: Antitubercular activity against Mycobacterium tuberculosis H37Rv ATCC 27294 assessed as growth inhibition at 0.3125 to 5 ug/mL after 7 days by resazurin reduction test; type: functional; conditions: H37Rv ATCC 27294, 168 h
[17] = system: Mycolicibacterium smegmatis; test: Antitubercular activity against Mycobacterium smegmatis ATCC 19420 assessed as growth inhibition at 1 to 100 ug/mL after 7 days by resazurin reduction test; type: functional; conditions: ATCC 19420, 168 h
[18] = system: Mycolicibacterium fortuitum; test: Antitubercular activity against Mycobacterium fortuitum ATCC 19542 assessed as growth inhibition at 1 to 100 ug/mL after 7 days by resazurin reduction test; type: functional; conditions: ATCC 19542, 168 h
[19] = system: Mycobacterium tuberculosis; test: Antitubercular activity against Mycobacterium tuberculosis H37Rv ATCC 27294 assessed as growth inhibition at 1 to 100 ug/mL after 7 days by resazurin reduction test; type: functional
Candida albicans [20] = test: Antifungal activity against Candida albicans assessed as growth inhibition at […] to […] ug/ml after 3 to 4 days by agar well diffusion method; type: functional
[21] = system: Trichophyton mentagrophytes; test: Antifungal activity against Trichophyton mentagrophytes assessed as growth inhibition at […] to […] ug/ml after 3 to 4 days by agar well diffusion method; type: functional
Klebsiella pneumoniae [22] = test: Antibacterial activity against Klebsiella pneumoniae assessed as growth inhibition after 16 to 18 hr by serial plate dilution method; type: functional
Pseudomonas aeruginosa [23] = test: Antibacterial activity against Pseudomonas aeruginosa ATCC 27853 assessed as growth inhibition after 16 to 18 hr by serial plate dilution method; type: functional
Escherichia coli [24] = test: Antibacterial activity against Escherichia coli […] assessed as growth inhibition after 16 to 18 hr by serial plate dilution method; type: functional
Staphylococcus aureus [25] = test: Antibacterial activity against Staphylococcus aureus ATCC 25923 assessed as growth inhibition after 16 to 18 hr by serial plate dilution method; type: functional
Escherichia coli [26] = type: functional, ATCC 24922
Description: Antibacterial activity against Escherichia coli ATCC 24922 assessed as growth inhibition at 1.56 to 25 ug/ml after 3 to 4 days by agar well diffusion method

Structure (SMILES): Cc1[nH]c2ccc(OC(F)(F)F)cc2c1CNC(=O)CCc1cn(C)c2ccc(Cl)cc12
- diameter of the inhibition zone (DIZ) (Talaromyces marneffei [1]): <10 mm
- diameter of the inhibition zone (DIZ) (Aspergillus fumigatus [2]): <10 mm
- diameter of the inhibition zone (DIZ) (Aspergillus flavus [3]): <10 mm
- MIC (Candida albicans [4]): 12.5 µg/mL (≈ 26.9 µM)
- MIC [5]: 25 µg/mL (≈ 53.9 µM)
- MIC (Talaromyces marneffei [6]): 25 µg/mL (≈ 53.9 µM)
- MIC (Aspergillus fumigatus [7]): 25 µg/mL (≈ 53.9 µM)
- MIC (Aspergillus flavus [8]): 25 µg/mL (≈ 53.9 µM)
- diameter of the inhibition zone (DIZ) (Streptococcus pyogenes [9]): 11 mm
- diameter of the inhibition zone (DIZ) (Klebsiella pneumoniae [10]): 16 mm
- diameter of the inhibition zone (DIZ) (Pseudomonas aeruginosa [11]): <10 mm
- diameter of the inhibition zone (DIZ) (Staphylococcus aureus [12]): <10 mm
- MIC (Streptococcus pyogenes [13]): 12.5 µg/mL (≈ 26.9 µM)
- MIC [14]: 1.25 µg/mL (≈ 2.69 µM)
- MIC [15]: 1.25 µg/mL (≈ 2.69 µM)
- MIC [16]: 1.25 µg/mL (≈ 2.69 µM)
- MIC [17]: 1 µg/mL (≈ 2.16 µM)
- MIC [18]: 10 µg/mL (≈ 21.6 µM)
- growth inhibition (GI) [19]: 90%
- MIC ([19]; Mycobacterium tuberculosis, H37Rv ATCC 27294, 168 h): 1 µg/mL (≈ 2.16 µM)
- diameter of the inhibition zone (DIZ) (Candida albicans [20]): 11 mm
- diameter of the inhibition zone (DIZ) [21]: <10 mm
- MIC (Klebsiella pneumoniae [22]): 6.25 µg/mL (≈ 13.5 µM)
- MIC (Pseudomonas aeruginosa [23]): 25 µg/mL (≈ 53.9 µM)
- MIC (Escherichia coli [24]): 6.25 µg/mL (≈ 13.5 µM)
- MIC (Staphylococcus aureus [25]): 25 µg/mL (≈ 53.9 µM)
- diameter of the inhibition zone (DIZ) (Escherichia coli [26]): 16 mm
